Data published in PubChem BioAssay (NCI).
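Test compounds were applied to cells in 96-well plates for 48 hours at 5 doses. Abbreviation: GI50, concentration required for 50% inhibition of growth. TGI: concentration producing complete growth inhibition.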

Key:
Experiment in all cases: NCI tumour cell line growth inhibition, 48 h
SN12C renal = tested on: SN12C renal
HCC-2998 colon = tested on: HCC-2998 colon
SK-MEL-28 melanoma = tested on: SK-MEL-28 melanoma
SW-620 colon = tested on: SW-620 colon
MDA-MB-435 = tested on: MDA-MB-435
LOX IMVI melanoma = tested on: LOX IMVI melanoma
EKVX NSCLC = tested on: EKVX NSCLC
OVCAR-4 ovarian = tested on: OVCAR-4 ovarian
K-562 leukemia = tested on: K-562 leukemia
M14 melanoma = tested on: M14 melanoma
HOP-62 NSCLC = tested on: HOP-62 NSCLC
TK-10 renal = tested on: TK-10 renal
OVCAR-5 ovarian = tested on: OVCAR-5 ovarian
SF-268 CNS = tested on: SF-268 CNS
SK-MEL-5 melanoma = tested on: SK-MEL-5 melanoma
OVCAR-8 ovarian = tested on: OVCAR-8 ovarian
SK-OV-3 ovarian = tested on: SK-OV-3 ovarian
HL-60(TB) leukemia = tested on: HL-60(TB) leukemia
COLO 205 colon = tested on: COLO 205 colon
CCRF-CEM leukemia = tested on: CCRF-CEM leukemia
HT29 colon = tested on: HT29 colon
CAKI-1 renal = tested on: CAKI-1 renal
SF-539 CNS = tested on: SF-539 CNS
PC-3 prostate = tested on: PC-3 prostate
NCI-H23 lung = tested on: NCI-H23 lung
IGROV1 ovarian = tested on: IGROV1 ovarian
DU-145 prostate = tested on: DU-145 prostate
HCT-116 colon = tested on: HCT-116 colon
BT-549 breast = tested on: BT-549 breast
NCI-H460 lung = tested on: NCI-H460 lung
786-0 renal = tested on: 786-0 renal
NCI-H522 lung = tested on: NCI-H522 lung
MDA-MB-468 breast = tested on: MDA-MB-468 breast
RXF 393 renal = tested on: RXF 393 renal
HOP-92 NSCLC = tested on: HOP-92 NSCLC
MOLT-4 leukemia = tested on: MOLT-4 leukemia
U251 CNS = tested on: U251 CNS
SK-MEL-2 melanoma = tested on: SK-MEL-2 melanoma
SNB-19 CNS = tested on: SNB-19 CNS
UO-31 renal = tested on: UO-31 renal
MCF7 breast = tested on: MCF7 breast
UACC-62 melanoma = tested on: UACC-62 melanoma
A498 renal = tested on: A498 renal
OVCAR-3 ovarian = tested on: OVCAR-3 ovarian
RPMI-8226 leukemia = tested on: RPMI-8226 leukemia
MDA-MB-231 breast = tested on: MDA-MB-231 breast
T-47D breast = tested on: T-47D breast
HS 578T breast = tested on: HS 578T breast
HCT-15 colon = tested on: HCT-15 colon
SF-295 CNS = tested on: SF-295 CNS
UACC-257 melanoma = tested on: UACC-257 melanoma
MALME-3M melanoma = tested on: MALME-3M melanoma
KM12 colon = tested on: KM12 colon
SR leukemia = tested on: SR leukemia
A549 NSCLC = tested on: A549 NSCLC
ACHN renal = tested on: ACHN renal
NCI-H226 lung = tested on: NCI-H226 lung

SMILES: Cn1cc(-c2cc3nc(-c4cn(C)c5ncccc45)cc(N)n3n2)c2cc(F)ccc21
- GI50 (SN12C renal): 9.61 µM
- TGI (SN12C renal): > 100 µM
- GI50 (HCC-2998 colon): 61.2 µM
- TGI (HCC-2998 colon): > 100 µM
- GI50 (SK-MEL-28 melanoma): > 100 µM
- TGI (SK-MEL-28 melanoma): > 100 µM
- GI50 (SW-620 colon): 52.7 µM
- TGI (SW-620 colon): > 100 µM
- GI50 (MDA-MB-435): > 100 µM
- TGI (MDA-MB-435): > 100 µM
- GI50 (LOX IMVI melanoma): 2.43 µM
- TGI (LOX IMVI melanoma): 5.78 µM
- GI50 (EKVX NSCLC): 19 µM
- TGI (EKVX NSCLC): > 100 µM
- GI50 (OVCAR-4 ovarian): 4.12 µM
- TGI (OVCAR-4 ovarian): 20.9 µM
- GI50 (K-562 leukemia): 10.5 µM
- TGI (K-562 leukemia): > 100 µM
- GI50 (M14 melanoma): 57 µM
- TGI (M14 melanoma): > 100 µM
- GI50 (HOP-62 NSCLC): 4.05 µM
- TGI (HOP-62 NSCLC): 16.6 µM
- GI50 (TK-10 renal): 10.3 µM
- TGI (TK-10 renal): 31.3 µM
- GI50 (OVCAR-5 ovarian): 25.2 µM
- TGI (OVCAR-5 ovarian): > 100 µM
- GI50 (SF-268 CNS): 15.6 µM
- TGI (SF-268 CNS): > 100 µM
- GI50 (SK-MEL-5 melanoma): 46.2 µM
- TGI (SK-MEL-5 melanoma): > 100 µM
- GI50 (OVCAR-8 ovarian): 4.6 µM
- TGI (OVCAR-8 ovarian): 40.5 µM
- GI50 (SK-OV-3 ovarian): 14.4 µM
- TGI (SK-OV-3 ovarian): 34.5 µM
- GI50 (HL-60(TB) leukemia): > 100 µM
- TGI (HL-60(TB) leukemia): > 100 µM
- GI50 (COLO 205 colon): 6.78 µM
- TGI (COLO 205 colon): > 100 µM
- GI50 (CCRF-CEM leukemia): 7.83 µM
- TGI (CCRF-CEM leukemia): > 100 µM
- GI50 (HT29 colon): 4.14 µM
- TGI (HT29 colon): 28.4 µM
- GI50 (CAKI-1 renal): 13 µM
- TGI (CAKI-1 renal): > 100 µM
- GI50 (SF-539 CNS): 10.6 µM
- TGI (SF-539 CNS): 28.8 µM
- GI50 (PC-3 prostate): 11 µM
- TGI (PC-3 prostate): > 100 µM
- GI50 (NCI-H23 lung): 13.7 µM
- TGI (NCI-H23 lung): 58.2 µM
- GI50 (IGROV1 ovarian): 4.45 µM
- TGI (IGROV1 ovarian): 53.1 µM
- GI50 (DU-145 prostate): 8.97 µM
- TGI (DU-145 prostate): > 100 µM
- GI50 (HCT-116 colon): > 100 µM
- TGI (HCT-116 colon): > 100 µM
- GI50 (BT-549 breast): 13.3 µM
- TGI (BT-549 breast): 48 µM
- GI50 (NCI-H460 lung): 5.43 µM
- TGI (NCI-H460 lung): > 100 µM
- GI50 (786-0 renal): 4.82 µM
- TGI (786-0 renal): 19.8 µM
- GI50 (NCI-H522 lung): 10.8 µM
- TGI (NCI-H522 lung): 30.6 µM
- GI50 (MDA-MB-468 breast): 3.81 µM
- TGI (MDA-MB-468 breast): 22.1 µM
- GI50 (RXF 393 renal): 2.61 µM
- TGI (RXF 393 renal): 9.35 µM
- GI50 (HOP-92 NSCLC): 11.2 µM
- TGI (HOP-92 NSCLC): 46.7 µM
- GI50 (MOLT-4 leukemia): 20 µM
- TGI (MOLT-4 leukemia): > 100 µM
- GI50 (U251 CNS): 4.12 µM
- TGI (U251 CNS): 15.4 µM
- GI50 (SK-MEL-2 melanoma): 10.4 µM
- TGI (SK-MEL-2 melanoma): 23.3 µM
- GI50 (SNB-19 CNS): 5.79 µM
- TGI (SNB-19 CNS): 24.3 µM
- GI50 (UO-31 renal): 31.9 µM
- TGI (UO-31 renal): > 100 µM
- GI50 (MCF7 breast): 13.4 µM
- TGI (MCF7 breast): > 100 µM
- GI50 (UACC-62 melanoma): 20.4 µM
- TGI (UACC-62 melanoma): > 100 µM
- GI50 (A498 renal): 50 µM
- TGI (A498 renal): > 100 µM
- GI50 (OVCAR-3 ovarian): 14.1 µM
- TGI (OVCAR-3 ovarian): 57.8 µM
- GI50 (RPMI-8226 leukemia): 13.6 µM
- TGI (RPMI-8226 leukemia): > 100 µM
- GI50 (MDA-MB-231 breast): 9.62 µM
- TGI (MDA-MB-231 breast): 26.8 µM
- GI50 (T-47D breast): 6.15 µM
- TGI (T-47D breast): 67.1 µM
- GI50 (HS 578T breast): 11.3 µM
- TGI (HS 578T breast): 69.6 µM
- GI50 (HCT-15 colon): > 100 µM
- TGI (HCT-15 colon): > 100 µM
- GI50 (SF-295 CNS): 3.22 µM
- TGI (SF-295 CNS): 14 µM
- GI50 (UACC-257 melanoma): 65.6 µM
- TGI (UACC-257 melanoma): > 100 µM
- GI50 (MALME-3M melanoma): 10.6 µM
- TGI (MALME-3M melanoma): 37.7 µM
- GI50 (KM12 colon): > 100 µM
- TGI (KM12 colon): > 100 µM
- GI50 (SR leukemia): 2.48 µM
- TGI (SR leukemia): > 100 µM
- GI50 (A549 NSCLC): 7.71 µM
- TGI (A549 NSCLC): > 100 µM
- GI50 (ACHN renal): 4.21 µM
- TGI (ACHN renal): 20.6 µM
- GI50 (NCI-H226 lung): 4.04 µM
- TGI (NCI-H226 lung): 20.2 µM
